From patent publication US20250215015A1 (THE REGENTS OF THE UNIVERSITY OF CALIFORNIA, priority 2022, published 2025)
Where two headings read alike, the source gives them in different places.

Experiments:
U87 GBM = assay: GBM agent potency in U87 cells; type: cell-based
Text: UCN-01 potency. The potency of UCN-01 markedly exceeds that of standard GBM agents in GBM U87 cells (Table 1), and it engages a unique pattern of signaling pathways to drive apoptosis. The ability of UCN-01 at noncytotoxic doses to abrogate G2 arrest is evident in p53 dysregulated cells. p53 is mutated in about 35% of primary GBM and 65% of secondary GBM. p53 pathway dysregulation occurs in 86% of GBM.

phosphorylation of Akt = assay: Western blot for Akt, P-Akt, cleaved PARP; type: cell-based; details: U87 cells
Text: FIG. 5A: Western blot analysis for Akt, P-Akt, cleaved PARP. […] Representative blot from two independent experiments is shown.

U87 flank tumors = assay: U87 flank tumor growth in mice; type: in vivo, nu/nu mice
[1] = Toxicity in mice: body weight and liver enzymes; type: in vivo; details: mice bearing U87 GBM flank tumors
Text: Weight declined with STS but not PBS or LSTS. Bottom panel is bar graph depicting liver enzymes ALT/AST before and after treatment. For free STS the post treatment levels were flagged as abnormal (stars). ALT/AST enzyme levels were normal with empty liposomes (control) and LSTS. Reference levels shown by dashed lines.

U87 cells = assay: FACS analysis for DNA content; type: cell-based; details: treated cells
[2] = In vitro unbound fraction of UCN-01 in human plasma; type: in vitro ADME; parameters: dose or concentration left out as unconfirmed
Text: (§1) UCN-01 pharmacokinetics and nanoliposomes. Free UCN-01 is instantly bound by human alpha-1 acid glycoprotein (AAG) plasma protein with extremely high affinity and remains in circulation for remarkably extended periods of time. […] Unfortunately this greatly diminishes the availability of free (active) compound so that the in vivo effectiveness of UCN-01 is compromised even when it enters tumor tissue when bound to AAG the UCN-01 molecule is not bioavailable. Increasing the UCN-01 dose to sufficiently saturate AAG in the plasma elevates the risk of toxicity.

[3] = test system: GBM patient cancer stem cell derived GBM tumorsphere lines; assay: GBM cytotoxicity, MTT assay in tumorsphere lines; type: cell-based; details: 8 GBM tumorsphere lines, almost all cell lines
Procedure: GBM cytotoxicity with UCN-01. 8 different GBM patient cancer stem cell derived GBM tumorsphere lines were incubated with a range of UCN-01 doses. The percent viable cells were determined with the MTT assay.

[4] = In vitro unbound fraction of UCN-01 in rat plasma; type: in vitro ADME; parameters: dose or concentration left out as unconfirmed
Text: as §1

U87 glioblastoma cells = assay: Potentiation of temozolomide; type: cell-based
[5] = test system: radioresistant U87 GBM cells; assay: GBM radiosensitization in culture; type: cell-based; details: mildly cytotoxic nM levels, clinically relevant radiation doses
Procedure: Bar graph of radiation dose and UCN-01 dose (nM) vs percent viable U87 GBM cells. Red columns for 0 Gy and purple for 5 Gy—a clinically relevant dose.
GBM radiosensitization with low doses of the staralog UCN-01. […] As a precursor to studies with a range of staralogs, extensive model investigations with the class parent staralog model system, STS were performed.

[6] = In vitro unbound fraction of UCN-01 in dog plasma; type: in vitro ADME; parameters: dose or concentration left out as unconfirmed
Text: as §1

[7] = In vitro unbound fraction of UCN-01 in mouse plasma; type: in vitro ADME; parameters: dose or concentration left out as unconfirmed
Text: as §1

Q: With `O=NN(CCCl)C(=O)NCCCl` [BCNU] as the compound, how does the IC50 (U87 GBM) read?
A: The IC50 was 60000 nM.

Q: Which IC50 (U87 GBM) does the source give for `O=c1[nH]cc(F)c(=O)[nH]1` [Compound 5-FU, 5-FU] here?
A: Its IC50 is 2500 nM.

Q: Which IC50 (U87 GBM; Homo sapiens, U-87 MG) does the source give for `COc1cccc2c1C(=O)c1c(O)c3c(c(O)c1C2=O)C[C@@](O)(C(=O)CO)C[C@@H]3O[C@H]1C[C@H](N)[C@H](O)[C@H](C)O1` [Doxorubicin] here?
A: Its IC50 is 1000 nM.

Q: For `CN[C@@H]1C[C@H]2O[C@@](C)([C@@H]1OC)n1c3ccccc3c3c4c(c5c6ccccc6n2c5c31)C(=O)NC4` [STS, Staurosporine], which PARP cleavage (phosphorylation of Akt) is on record?
A: Its PARP cleavage is “stimulated caspase 3 dependent PARP cleavage”.

Q: And the phospho-Akt (phosphorylation of Akt)?
A: The phospho-Akt was “suppression of phospho-Akt”.

Q: And the “in vivo GBM proliferation (Ki-67)” value (U87 flank tumors)?
A: Its value is “did not”.

Q: And the body weight [1]?
A: Its body weight is “reduction in body weight”.

Q: And the “DNA content (FACS)” value (U87 cells)?
A: Its value is “G0 shift consistent with apoptosis”.

Q: For `Cn1nnc2c(C(N)=O)ncn2c1=O` [Temozolomide], which IC50 (U87 GBM; Homo sapiens, U-87 MG) is on record?
A: Its IC50 is 50000 nM.

Q: With `CN[C@@H]1C[C@H]2O[C@@](C)([C@@H]1OC)n1c3ccccc3c3c4c(c5c6ccccc6n2c5c31)C(=O)N[C@H]4O` [UCN-01, 7-hydroxystaurosporine] as the compound, how does the Unbound fraction % [2] read?
A: The Unbound fraction % was under 0.02%.

Q: And the IC50 (U87 GBM)?
A: Its IC50 is 50 nM.

Q: What about the IC50 values [3] of the same compound?
A: The IC50 values was “low nanomolar (nM) range”.

Q: What about the Unbound fraction % [4] of the same compound?
A: The Unbound fraction % was 1.75%.

Q: And the “potentiation of temozolomide (TMZ)” value (U87 glioblastoma cells)?
A: The value was “potentiated temozolomide (TMZ)”.

Q: What about the sensitization to radiation [5] of the same compound?
A: The sensitization to radiation was “able to sensitize”.

Q: And the Unbound fraction % [6]?
A: The Unbound fraction % was 0.49%.

Q: What about the Unbound fraction % [7] of the same compound?
A: Its Unbound fraction % is 1.14%.
